According to publication PMC11758220, “Identification of a Privileged Scaffold for Inhibition of Sterol Transport Proteins through the Synthesis and Ring Distortion of Diverse, Pseudo-Natural Products” (ACS Central Science, 2025):

What was measured:
STARD1 = target: T1, STARD1 (Homo sapiens, UniProt P49675); assay: Fluorescence polarisation (FP) competition with NBD-cholesterol, STARD1; type: binding; conditions: for IC50: mean of three experiments run in technical duplicates; for STARD1 (FP) inhibition / inhibition at 10 µM: single dose, Dose = 10 µM
T1 construct: STARD1(66-284); made in house; host or cells: E. coli BL21(DE3)
T1 sequence (P49675 66-284): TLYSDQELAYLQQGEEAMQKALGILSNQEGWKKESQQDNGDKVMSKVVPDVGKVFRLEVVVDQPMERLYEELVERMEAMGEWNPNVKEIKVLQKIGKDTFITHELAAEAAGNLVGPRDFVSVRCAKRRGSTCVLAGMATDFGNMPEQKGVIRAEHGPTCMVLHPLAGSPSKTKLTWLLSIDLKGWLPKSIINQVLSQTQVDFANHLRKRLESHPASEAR

Aster-A = target: T2, Aster-A (Homo sapiens, UniProt Q96CP6); assay: In-cell isothermal shift assay in intact Jurkat cells; type: cell-based; conditions: 10 μM, 1 h, heated to 50 °C, Western blot
T2 construct: endogenous in cells; host or cells: Jurkat cells
T2 sequence (Q96CP6 1-724): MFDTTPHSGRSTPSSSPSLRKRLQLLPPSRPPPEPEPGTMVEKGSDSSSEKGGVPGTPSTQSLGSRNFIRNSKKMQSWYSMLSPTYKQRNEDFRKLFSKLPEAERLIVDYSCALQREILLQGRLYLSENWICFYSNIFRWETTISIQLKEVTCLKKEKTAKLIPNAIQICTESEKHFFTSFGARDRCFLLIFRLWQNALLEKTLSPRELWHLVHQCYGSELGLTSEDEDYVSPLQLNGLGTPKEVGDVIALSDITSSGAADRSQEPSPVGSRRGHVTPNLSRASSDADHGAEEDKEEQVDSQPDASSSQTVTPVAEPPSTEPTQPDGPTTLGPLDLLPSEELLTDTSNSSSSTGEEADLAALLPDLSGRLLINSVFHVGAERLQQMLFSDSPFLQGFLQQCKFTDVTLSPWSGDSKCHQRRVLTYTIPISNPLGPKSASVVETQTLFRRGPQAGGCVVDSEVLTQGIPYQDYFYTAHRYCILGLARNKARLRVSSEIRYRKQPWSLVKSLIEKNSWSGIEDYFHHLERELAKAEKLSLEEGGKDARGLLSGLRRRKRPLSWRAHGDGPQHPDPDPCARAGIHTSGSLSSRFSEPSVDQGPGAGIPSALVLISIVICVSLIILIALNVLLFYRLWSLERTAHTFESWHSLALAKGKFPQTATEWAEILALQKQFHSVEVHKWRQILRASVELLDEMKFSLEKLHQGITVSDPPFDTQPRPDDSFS
Method: Jurkat cells were cultured in RPMI 1640 GlutaMAX supplemented with 10% fetal bovine serum and 1% penicillin-streptomycin at 37 °C, 5% CO2.
In-cell thermal stability assay
To a 15 mL falcon tube were added 3 × 10^5 Jurkat cells in media and centrifuged at 300 × g for three minutes. The supernatant was aspirated, and the cells were resuspended in 4 mL media containing 0.1% DMSO. The cells were gently vortexed to avoid pelleting at 30 minutes intervals. After 1 h incubation at 37 °C and 5% CO2, the cells were washed twice with PBS and collected in 0.9 mL PBS and divided into eight aliquots, each 100 µL in PCR tubes. The aliquots were individually heated at different temperatures (Doppio 2 × 48 well Thermal cycler, VWR). After the heat treatment, 10 µL of PBS containing 4.4 %v/v NP-40 was added to each sample and cells were lysed by freeze-thaw four times. The cell lysates were transferred to 1.5 mL Eppendorf tubes and cen trifuged (Micro Star 30, VWR) at 25000 × g, 4 °C for 25 minutes. The cleared supernatants were collected and further analy sed […]
In-cell isothermal shift assay
To eight 15 mL falcon tubes were added 3 × 10^5 Jurkat cells in 1 mL of media per tube and incubated with indicated test compounds for one hour at 37 °C and 5% CO2. The cells were gently vortexed to avoid pelleting at 30 minutes intervals. After one hour incubation at 37 °C and 5% CO2, the cells were centrifuged at 300 × g for three minutes, washed once with PBS and centrifuged again at 300 × g for three minutes. The cells were then resuspended in 50 µL of PBS in PCR tubes. The samples were then heated at the given temperature (Eppendorf Mastercycler ep Gradie nt S). After the heat treatment, 5 µL of PBS containing 4.4 %v/v NP-40 were added to each sample and cells lysed by freeze-thaw four times. Finally, the cell lysates were completely transferred to 1.5 mL Eppendorf tubes and centrifuged (Micro Star 30, VMR) at 25000 × g, 4 °C for 25 minutes. The cleared supernatants were collected and further analysed by western blotting.
Sodium dodecyl sulfate-polyacrylamide gel electrophoresis and western blotting Sodium dodecyl sulfate-polyacrylamide gel electrophoresis (SDS-PAGE) experiments were carried out using 4-15% precast polyacrylamide gels (Bio-Rad) and run at a constant voltage of 100 V for ten minutes followed by 120 V for one hour. Semidry transfer onto a 0.2 µm nitrocellulose membrane was performed using Bio-Rad Trans-Blot Turbo Transfer System at 1.3 A for seven minutes. For chemiluminescent detection, membranes were blocked in 5% milk in TBST (tris -buffered saline with Tween; 137 mM NaCl, 19 mM Tris-base, 2.7 mM KCl and 0.1 %v/v Tween-20, blocking buffer) for one houre at room temperature. […]
Western blot quantification was performed using LI-COR Image Studio Lite. […]

Row | SMILES | IC50 (STARD1) [µM] | STARD1 (FP) inhibition (STARD1) [%] | Stabilization of Aster-A toward thermal unfolding in intact Jurkat cells (Aster-A) | inhibition at 10 µM (STARD1) [%]
1 | CC(C)Oc1ccc(C(=O)Nc2nc3c(s2)CN(C(=O)OC(C)(C)C)CC3)cc1 [Autogramin-2, reference compound] | > 80 | 22 | showed stabilization of Aster-A | –
2 | CC(C)(C)OC(=O)N1CCN(c2ccc3c(c2)C24CCC5CC(CCC52C)OC4=N3)CC1 (stereo not shown) [Compound 19e] | – | – | increased stabilization of Aster-A in intact cells | 25
3 | C[C@]12CC[C@@H]3C[C@H]1CC[C@@]21C(=Nc2ccc(C(F)(F)F)cc21)O3 [Compound 15g] | – | – | showed stabilization of Aster-A | 25
4 | CC12CCC3CC1CCC21C(=Nc2ccc(N4CCOCC4)cc21)O3 (single isomer, unassigned; (-)) [(−)-19a] | > 80 | 30 | showed stabilization of Aster-A | –
